Assays:
Assay type in all cases: cell-based
Interferon-α = test: Induction of Interferon-α using cryopreserved human PBMCs; settings: PBMC, 24 h incubation, normalized to 1 uM resiquimod, read-out: mean pEC50 for induction of Interferon-α (converted)
Experimental: Assay for the Induction of Interferon-α Using Cryopreserved Human Peripheral Blood Mononuclear Cells (PBMCs)
Compounds were dissolved in DMSO. Serial 2-fold dilutions with DMSO were prepared and 0.25 μl dispensed into 384-well clear Greiner polypropylene plates.
Blood samples of up to 200 ml were obtained from healthy human donors. Whole blood in 25 ml volumes was overlaid onto 15 ml Ficoll® gradients in Leucosep® tubes, and centrifuged at 1000 g for 20 min. Cells in the band at the plasma/Histopaque® interface were carefully removed and washed twice with PBS (centrifuged at 400 g for 5 min to harvest). The final pellet was resuspended in freezing medium (90% Heat-inactivated serum, 10% DMSO) to a cell concentration of 4×10^7 cells/ml. The resuspended cells were then cryopreserved (frozen) using a rate controlled freezer, and stored at −140° C. for up to 4 months.
Immediately prior to assay, vials of cryopreserved (frozen) PBMCs were thawed rapidly in a water bath at 37° C. A 1:10 dilution of the cells in trypan blue was prepared and counted. The PBMCs were then diluted in growth media [RPMI 1640 containing 10% fetal calf serum (invitrogen), Penicillin+[…] (Gibco cat. #25030-024, 1:50), L-Glutamine 2 mM, and 1000 units/ml recombinant human IFN-gamma (Preprotech catalogue #300-02)] to a density of 1×10^6 cells/ml, and 50 ul/well dispensed to 384-well clear Greiner polypropylene plates containing 0.25 μl DMSO or test compound in 0.25 μl DMSO. […] Plates were incubated for 24 h at 37° C. in 5% CO2.
A multi-isoform immunoassay was used to quantify IFN-α in PBMC supernatants. Rabbit polyclonal antibody against human IFN-α (catalogue number 31101, Stratech Scientific) was diluted 1:10000 in assay buffer (RPMI 1640 containing 10% fetal calf serum, Invitrogen) and 20 μl was added to each well of an MSD® (Meso-Scale® Discovery) single small-spot 384-well GAR (goat anti-rabbit antibody coated) plate.
The plate was incubated for 1 h at room temperature with vigorous shaking. Following three washes with PBS, 20 μl of cell supernatant were added to each well of the plate. The plate was then incubated for 1 h at room temperature with vigorous shaking. A pair of monoclonal antibodies to IFN-α (catalogue numbers 21100 and 21112, Stratech Scientific) were labelled with sulfo-TAG (MSD®), diluted 1:1000 in assay buffer and 20 μl added to each well of the plate. The plate was further incubated for 1 h at room temperature with vigorous shaking. Following three washes with PBS, 30 μl of ×2 T buffer (MSD®) was added to each well and the plate was read on an MSD® Sector 6000 plate reader.
Data were normalized to internal plate controls of 1 uM resiquimod (n=16) and DMSO (n=16). pEC50 values were derived by 4-parameter curve fit with IRLS in ActivityBase, from 11-point, two-fold serial dilution of test compounds.

TNF-α = test: Induction of TNF-α using fresh human PBMCs; settings: PBMC, 24 hr incubation, relative to 2 μM resiquimod control, read-out: mean pEC50 for induction of TNF-α (converted)
Experimental: (§1) Assay for the Induction of Interferon-α and TNF-α Using Fresh Human Peripheral Blood Mononuclear Cells (PBMCs)
(§2) Compounds were dissolved and serially diluted in DMSO to give 100× the required concentration range using a Biomek® 2000. 1 ul of test compound was transferred into 96-well tissue culture plates using a Biomek® FX. Each compound was assayed in duplicate for each donor. Each plate contained a dilution series of the TLR7/8 agonist resiquimod as standard and Column 11 contained 1 μl of 200 μM resiquimod (giving a 2 μM final concentration, used to define the approximate maximal response to resiquimod).
(§3) Blood samples from two human donors were collected into sodium heparin (10 U/ml). 25 ml volumes of whole blood were overlaid onto 15 mls Histopaque® in LEUCOSEP™ tubes which were centrifuged at 800 g for 20 min and the band at the plasma/histopaque interface carefully removed. The collected cells were centrifuged at 2500 rpm for 10 min and the pellet resuspended in 10 ml of media (RPMI 1640 (Low endotoxin) supplemented with 10% v/v foetal calf serum (FCS, low endotoxin) 100 U/ml penicillin G, 100 μg/ml streptomycin, 10 mM L-glutamine and 1× non-essential amino acids). A 1:20 dilution of the cells was prepared using trypan blue & the cells counted using a haemocytometer. The PBMCs were diluted to give a final concentration of 2×10^6/ml and 100 ul of this cells suspension was added to wells containing 1 μl of diluted test compound.
(§4) The cell preparations were incubated for 24 hr (37° C., 95% air, 5% CO2) after which a sample of the supernatant was removed using the Biomek® FX and assayed for both IFN-α and TNF-α using the MSD® (Mesoscale Discovery) electrochemiluminescence assay platform. The IFN-α assay was carried out similarly to that described above. The TNF-α assay was carried out as per kit instructions (Cat No K111BHB).
(§5) Cytokine released was expressed as a percentage of the 2 μM resiquimod control (column 11). This percentage was plotted against compound concentration and the pEC50 for the response determined by non-linear least squares curve fitting. For the IFN-α responses generally a 4 parameter logistic model was selected. For the TNF responses where a clear maximum response was obtained (i.e. a well defined plateau in the response was observed) then a 4 parameter model was generally used. If the upper asymptote of the curve wasn't well defined then the curve fitting was generally constrained to a maximal response of 100% (i.e. to the response to 2 μM resiquimod) or to the response of the highest concentration tested if this was greater than the resiquimod response. Some curves were bell shaped for one or both cytokines and the cytokine data on the down slope of the bell shaped response (i.e. concentrations above those giving the maximal response) were generally excluded from the fit, usually with the exception of the concentration immediately above the peak response. Curve fitting thus concentrated on the up slope of the dose response curve.

IFN-α = test: Induction of Interferon-α using fresh human PBMCs; settings: PBMC, 24 hr incubation, relative to 2 μM resiquimod control, read-out: mean pEC50 for induction of IFN-α (converted)
Experimental: as §1, §2, §3, §4, §5

Row | Structure (SMILES) | EC50 (Interferon-α) [µM] | EC50 (TNF-α) [µM] | EC50 (IFN-α) [µM]
1 | CCCCOc1nc(N)c2[nH]c(=O)n(CCCN3CCCCCC3)c2n1 [Example 3, 6-Amino-2-(butyloxy)-9-[3-(hexahydro-1H-azepin-1-yl)propyl]-7,9-dihydro-8H-purin-8-one] | < 3.16 | – | –
2 | CC[C@H](C)Oc1nc(N)c2[nH]c(=O)n(CCCCCN3CCCCC3)c2n1 [Example 33, 6-Amino-2-{[(1S)-1-methylpropyl]oxy}-9-[5-(1-piperidinyl)pentyl]-7,9-dihydro-8H-purin-8-one] | < 3.16 | – | –
3 | CCC[C@@H](C)Nc1nc(N)c2[nH]c(=O)n(CCCCN3CCCCC3)c2n1 [Example 30, 6-Amino-2-{[(1R)-1-methylbutyl]amino}-9-[4-(1-piperidinyl)butyl]-7,9-dihydro-8H-purin-8-one] | < 3.16 | – | –
4 | Nc1nc(OC2CCCCC2)nc2c1[nH]c(=O)n2CCCCN1CCCCC1 [Example 29, 6-Amino-2-(cyclohexyloxy)-9-[4-(1-piperidinyl)butyl]-7,9-dihydro-8H-purin-8-one] | < 3.16 | – | –
5 | CCCCOc1nc(N)c2[nH]c(=O)n(CCCCN3CCCCCC3)c2n1 [Example 7, 6-Amino-2-(butyloxy)-9-[4-(hexahydro-1H-azepin-1-yl)butyl]-7,9-dihydro-8H-purin-8-one] | < 3.16 | > 1 | ≤ 0.01
6 | CCCCOc1nc(N)c2[nH]c(=O)n(CCCN3CCC3)c2n1 [Example 1, 6-Amino-9-[3-(1-azetidinyl)propyl]-2-(butyloxy)-7,9-dihydro-8H-purin-8-one] | < 3.16 | – | –
7 | CCC[C@H](C)Oc1nc(N)c2[nH]c(=O)n(CCCCN3CCCCC3)c2n1 [Example 20, 6-Amino-2-{[(1S)-1-methylbutyl]oxy}-9-[4-(1-piperidinyl)butyl]-7,9-dihydro-8H-purin-8-one] | < 3.16 | ≥ 0.316 | ≤ 0.001
8 | CC[C@H](C)Oc1nc(N)c2[nH]c(=O)n(CCCCN3CCCCC3)c2n1 [Example 24, 6-Amino-2-{[(1S)-1-methylpropyl]oxy}-9-[4-(1-piperidinyl)butyl]-7,9-dihydro-8H-purin-8-one] | < 3.16 | – | –
9 | CCC[C@H](C)Oc1nc(N)c2[nH]c(=O)n(CCCN3CCCCC3)c2n1 [Example 32, 6-Amino-2-{[(1S)-1-methylbutyl]oxy}-9-[3-(1-piperidinyl)propyl]-7,9-dihydro-8H-purin-8-one] | < 3.16 | – | –
10 | CCCCOc1nc(N)c2[nH]c(=O)n(CCCCN3CCCCC3)c2n1 [Example 6, 6-Amino-2-(butyloxy)-9-[4-(1-piperidinyl)butyl]-7,9-dihydro-8H-purin-8-one] | < 3.16 | > 1 | ≤ 0.01
11 | CCCCOc1nc(N)c2[nH]c(=O)n(CCCN3CCCC3)c2n1 [Example 2, 6-Amino-2-(butyloxy)-9-[3-(1-pyrrolidinyl)propyl]-7,9-dihydro-8H-purin-8-one] | < 3.16 | – | –
12 | CCCCNc1nc(N)c2[nH]c(=O)n(CCCCCN3CCCCCC3)c2n1 [Example 19, 6-Amino-2-(butylamino)-9-[5-(hexahydro-1H-azepin-1-yl)pentyl]-7,9-dihydro-8H-purin-8-one] | < 3.16 | – | –
13 | CCCCOc1nc(N)c2[nH]c(=O)n(CCCN3CCCCC3)c2n1 [Example 34, 6-Amino-2-(butyloxy)-9-[3-(1-piperidinyl)propyl]-7,9-dihydro-8H-purin-8-one] | < 3.16 | – | –
14 | CCCCOc1nc(N)c2[nH]c(=O)n(CCCCCN3CCCCC3)c2n1 [Example 10, 6-Amino-2-(butyloxy)-9-[5-(1-piperidinyl)pentyl]-7,9-dihydro-8H-purin-8-one] | < 3.16 | > 1 | ≤ 0.01
15 | CCCCOc1nc(N)c2[nH]c(=O)n(CCCCN3CCC3)c2n1 [Example 4, 6-Amino-9-[4-(1-azetidinyl)butyl]-2-(butyloxy)-7,9-dihydro-8H-purin-8-one] | < 3.16 | – | –
16 | CCCCOc1nc(N)c2[nH]c(=O)n(CCCCN3CCCC3)c2n1 [Example 5, 6-Amino-2-(butyloxy)-9-[4-(1-pyrrolidinyl)butyl]-7,9-dihydro-8H-purin-8-one] | < 3.16 | > 3.16 | < 0.0316
17 | Nc1nc(OC2CCC2)nc2c1[nH]c(=O)n2CCCCN1CCCCC1 [Example 27, 6-Amino-2-(cyclobutyloxy)-9-[4-(1-piperidinyl)butyl]-7,9-dihydro-8H-purin-8-one] | < 3.16 | – | –
18 | CCCCNc1nc(N)c2[nH]c(=O)n(CCCCN3CCCCC3)c2n1 [Example 17, 6-Amino-2-(butylamino)-9-[4-(1-piperidinyl)butyl]-7,9-dihydro-8H-purin-8-one] | < 3.16 | – | –
19 | CCCCOc1nc(N)c2[nH]c(=O)n(CCCCCN3CCC3)c2n1 [Example 8, 6-Amino-9-[5-(1-azetidinyl)pentyl]-2-(butyloxy)-7,9-dihydro-8H-purin-8-one] | < 3.16 | – | –
20 | Nc1nc(OC2CCCC2)nc2c1[nH]c(=O)n2CCCCN1CCCCC1 [Example 28, 6-Amino-2-(cyclopentyloxy)-9-[4-(1-piperidinyl)butyl]-7,9-dihydro-8H-purin-8-one] | < 3.16 | – | –
21 | CCCCNc1nc(N)c2[nH]c(=O)n(CCCN3CCCCC3)c2n1 [Example 16, 6-Amino-2-(butylamino)-9-[3-(1-piperidinyl)propyl]-7,9-dihydro-8H-purin-8-one] | < 3.16 | – | –
22 | CC(C)Oc1nc(N)c2[nH]c(=O)n(CCCCCN3CCCCC3)c2n1 [Example 26, 6-Amino-2-[(1-methylethyl)oxy]-9-[5-(1-piperidinyl)pentyl]-7,9-dihydro-8H-purin-8-one] | < 3.16 | – | –
23 | CCCC[C@H](C)Oc1nc(N)c2[nH]c(=O)n(CCCCN3CCCCC3)c2n1 [Example 25, 6-Amino-2-{[(1S)-1-methylpentyl]oxy}-9-[4-(1-piperidinyl)butyl]-7,9-dihydro-8H-purin-8-one] | < 3.16 | – | –
24 | CCC[C@H](C)Nc1nc(N)c2[nH]c(=O)n(CCCCN3CCCCC3)c2n1 [Example 31, 6-Amino-2-{[(1S)-1-methylbutyl]amino}-9-[4-(1-piperidinyl)butyl]-7,9-dihydro-8H-purin-8-one] | < 3.16 | – | –
